The target in data set [1] is HDAC3/NcoR2 (Homo sapiens (Human), UniProt O15379). Kind of data set: HDAC activity inhibition assay, HDAC3/NcoR2. The class given is biochemical. The protocol: (§1) The HDAC activity inhibition assay was performed as follows to determine the ability of a test compound to inhibit HDAC enzymatic activity. […] Following pre-incubation, Fluor-de-Lys™ substrate (Enzo Life Sciences, Plymouth Meeting, Pa., BML-KI104-0050) was added to a final concentration of 10 μM and plates were further incubated for 30 minutes at room temperature. […] IC50 values were calculated by using a sigmoidal dose-response (variable slope) equation in GraphPad Prism® 5 for Windows (GraphPad Software, La Jolla, Calif.).

Data set [2] has as its target HDAC2 (Homo sapiens (Human), UniProt Q92769). As to the kind of experiment: HDAC activity inhibition assay, HDAC2. The format is biochemical. The protocol: as §1
Data set [3] concerns the target HDAC1 (Homo sapiens (Human), UniProt Q13547). As to the kind of experiment: HDAC activity inhibition assay, HDAC1. The class given is biochemical. As to conditions: Table 1; 2 hours pre-incubation. Here is the method: as §1
Data set [4] in a line: Acid stability determination. The settings on record: 100 μM in 0.01 M HCl, 50° C. The class given is physicochemical. The protocol: A 100 μM solution of test compound was prepared by dilution of a 10 mM DMSO stock solution in a 0.01 M solution of HCl in deionized water. Immediately after mixing, an aliquot (100 μL) was sampled and analyzed by HPLC/UV. The area under the compound peak was determined and used as the time zero reference point. The remainder of the acid sample was incubated at 50° C. and samples were taken after 2, 4, and 24 hours of incubation. On a few occasions, samples were taken at 30 rather than 24 hours. These were analyzed by the same HPLC/UV method and the area of the peak corresponding to the test compound was measured. Percent remaining at a given time point was then calculated as the ratio of the area under the peak after incubation to that at time zero times 100. In those cases where a 30 hour time point was recorded, the percent remaining at 24 hours was obtained by interpolation of the percent remaining versus time curve assuming a unimolecular process, i.e. a monoexponential decay. Percent remaining after 24 hours incubation are presented in Tables 2 and 4 below, where A corresponds to more than 60%, B is between 40 and 60%, C covers 20 to 40% and D means less than 20%.

[5] abbreviates: Table 1, 2 hours pre-incubation.

Each structure is given as a SMILES string. Read-outs that look alike come from different tables or passages of the source.

Chain of HDAC1 (Q13547 whole entry): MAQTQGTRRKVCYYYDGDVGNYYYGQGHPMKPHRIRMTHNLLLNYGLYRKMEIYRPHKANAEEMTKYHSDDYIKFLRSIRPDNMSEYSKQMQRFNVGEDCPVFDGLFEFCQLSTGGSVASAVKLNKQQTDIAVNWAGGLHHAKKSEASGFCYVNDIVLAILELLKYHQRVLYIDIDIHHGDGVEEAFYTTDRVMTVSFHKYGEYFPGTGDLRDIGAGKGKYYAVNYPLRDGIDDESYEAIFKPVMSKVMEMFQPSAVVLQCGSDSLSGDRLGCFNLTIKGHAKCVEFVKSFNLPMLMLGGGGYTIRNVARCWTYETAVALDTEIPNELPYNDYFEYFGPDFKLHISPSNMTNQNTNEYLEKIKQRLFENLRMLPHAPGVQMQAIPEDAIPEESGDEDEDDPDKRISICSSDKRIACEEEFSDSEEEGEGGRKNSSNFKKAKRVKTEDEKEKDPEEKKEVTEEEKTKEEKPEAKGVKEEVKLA
Chain of HDAC3/NcoR2 (O15379 whole entry): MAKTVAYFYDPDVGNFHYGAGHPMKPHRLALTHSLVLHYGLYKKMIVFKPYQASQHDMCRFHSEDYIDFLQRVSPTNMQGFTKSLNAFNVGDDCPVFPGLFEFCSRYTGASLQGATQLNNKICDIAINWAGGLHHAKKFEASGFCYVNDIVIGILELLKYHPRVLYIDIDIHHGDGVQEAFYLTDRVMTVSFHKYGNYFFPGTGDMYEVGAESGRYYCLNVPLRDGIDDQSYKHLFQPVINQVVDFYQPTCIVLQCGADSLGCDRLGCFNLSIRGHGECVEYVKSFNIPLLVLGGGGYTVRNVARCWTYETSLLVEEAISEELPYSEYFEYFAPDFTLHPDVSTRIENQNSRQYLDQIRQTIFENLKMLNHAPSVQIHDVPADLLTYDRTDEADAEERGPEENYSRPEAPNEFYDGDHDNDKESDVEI
Chain of HDAC3/NcoR2 (Q9Y618 395-489 partner): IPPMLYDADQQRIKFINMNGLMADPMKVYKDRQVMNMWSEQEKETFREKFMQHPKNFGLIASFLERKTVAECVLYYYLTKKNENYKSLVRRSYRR
Chain of HDAC2 (Q92769 whole entry): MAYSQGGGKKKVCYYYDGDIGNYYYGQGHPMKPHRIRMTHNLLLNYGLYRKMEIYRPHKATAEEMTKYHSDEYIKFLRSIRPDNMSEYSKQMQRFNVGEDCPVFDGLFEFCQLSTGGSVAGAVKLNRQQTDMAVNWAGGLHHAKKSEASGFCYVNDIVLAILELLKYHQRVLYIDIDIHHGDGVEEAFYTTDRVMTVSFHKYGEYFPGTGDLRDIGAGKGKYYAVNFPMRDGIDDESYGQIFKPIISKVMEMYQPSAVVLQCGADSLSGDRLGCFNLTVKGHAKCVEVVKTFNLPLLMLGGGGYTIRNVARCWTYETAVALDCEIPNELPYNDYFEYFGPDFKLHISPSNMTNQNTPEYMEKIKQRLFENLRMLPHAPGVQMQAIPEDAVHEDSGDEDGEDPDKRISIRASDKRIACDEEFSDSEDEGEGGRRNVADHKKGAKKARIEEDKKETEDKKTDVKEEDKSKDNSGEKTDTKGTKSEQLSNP

For orientation: IC50 means the point on the concentration scale where inhibition reaches its midpoint. High values mean weaker potency, low ones greater potency. For the compound `Cc1nc(/C=C/C(=O)Nc2ccccc2N)cs1` [A1], the concentration for half-maximal inhibition (IC50) is less than 1000 nM in data set [1] (setting [5]), 5000 to 10000 nM in data set [2] (setting [5]) and 1000 to 5000 nM in data set [3].

Take `Cn1cc(/C=C/C(=O)Nc2ccccc2N)cn1` [A2]: the IC50 in data set [1] (setting [5]) was less than 1000 nM; in data set [2] (setting [5]), 10000 to 20000 nM; in data set [3] it was 5000 to 10000 nM. Further, in data set [4], the “acid stability (percent remaining after 24 hours incubation)” value is “B (B is between 40 and 60%)”.

`Cc1ncc(/C=C/C(=O)Nc2ccccc2N)s1` [A3]: the values for the IC50 in data set [1] (setting [5]), in data set [2] (setting [5]) and in data set [3] were less than 1000 nM, 5000 to 10000 nM and 5000 to 10000 nM, respectively.

In the case of `Cc1nc(/C=C/C(=O)Nc2ccccc2N)co1` [A4], the IC50 is 1000 to 5000 nM in data set [1] (setting [5]), more than 20000 nM in data set [2] (setting [5]) and more than 20000 nM in data set [3].

Take `Cc1cc(/C=C/C(=O)Nc2ccccc2N)on1` [A5]: the figures for the IC50 in data set [1] (setting [5]), in data set [2] (setting [5]) and in data set [3] were less than 1000 nM, 10000 to 20000 nM and 10000 to 20000 nM, respectively. In addition, the “acid stability (percent remaining after 24 hours incubation)” value in data set [4] is “B (B is between 40 and 60%)”.

Take `Nc1ccccc1NC(=O)/C=C/c1cnc2ccccn12` [A6, (E)-N-(2-aminophenyl)-3-(imidazo[1,2-a]pyridin-3-yl)acrylamide]: the 50% inhibitory concentration (IC50) in data set [1] (setting [5]) is less than 1000 nM; in data set [2] (setting [5]) it was 5000 to 10000 nM; in data set [3], 5000 to 10000 nM.

Take `Cn1ccc(/C=C/C(=O)Nc2ccccc2N)n1` [A7]: the values for the IC50 in data set [1] (setting [5]), in data set [2] (setting [5]) and in data set [3] were less than 1000 nM, 1000 to 5000 nM and 1000 to 5000 nM, respectively.

As for `Nc1ccccc1NC(=O)/C=C/c1cc2ccccn2n1` [A8], the figures for the IC50 in data set [1] (setting [5]), in data set [2] (setting [5]) and in data set [3] were less than 1000 nM, 1000 to 5000 nM and less than 1000 nM, respectively. Besides, the “acid stability (percent remaining after 24 hours incubation)” value in data set [4] is “B (B is between 40 and 60%)”.

As for `Nc1ccccc1NC(=O)/C=C/c1cn2ccccc2n1` [A9], the IC50 in data set [1] (setting [5]) was less than 1000 nM; in data set [2] (setting [5]), 1000 to 5000 nM; in data set [3] it was 1000 to 5000 nM.

`Nc1ccccc1NC(=O)/C=C/c1cn2ccnc2s1` [A10]: the IC50 is less than 1000 nM in data set [1] (setting [5]), 1000 to 5000 nM in data set [2] (setting [5]) and 1000 to 5000 nM in data set [3].

On to `Nc1ccccc1NC(=O)/C=C/c1cnn(-c2ccccc2)c1` [A11], for which the values for the 50% inhibitory concentration (IC50) in data set [1] (setting [5]), in data set [2] (setting [5]) and in data set [3] were less than 1000 nM, 1000 to 5000 nM and 1000 to 5000 nM, respectively. For the same compound, in data set [4], the “acid stability (percent remaining after 24 hours incubation)” value is given as “A (A corresponds to more than 60%)”.

As for `Cn1cnc(/C=C/C(=O)Nc2ccccc2N)c1` [A12], the concentration for half-maximal inhibition (IC50) in data set [1] (setting [5]) is less than 1000 nM; in data set [2] (setting [5]), 5000 to 10000 nM; in data set [3], 1000 to 5000 nM.

Regarding `Nc1ccccc1NC(=O)/C=C/c1cnn(CC2CC2)c1` [B1], the results for the concentration for half-maximal inhibition (IC50) in data set [1] (setting [5]), in data set [2] (setting [5]) and in data set [3] were less than 1000 nM, 5000 to 10000 nM and 1000 to 5000 nM, respectively.

With `Nc1ccccc1NC(=O)/C=C/c1cnn(C/C=C/c2ccc(F)cc2)c1` [B2], the 50% inhibitory concentration (IC50) in data set [1] (setting [5]) was less than 1000 nM; in data set [2] (setting [5]), 1000 to 5000 nM; in data set [3], less than 1000 nM.

For `Nc1ccccc1NC(=O)/C=C/c1cnn(CCOc2cc(F)cc(F)c2)c1` [B3, (E)-N-(2-aminophenyl)-3-(1-(2-(3,5-difluorophenoxy)ethyl)-1H-pyrazol-4-yl)acrylamide], the IC50 in data set [1] (setting [5]), in data set [2] (setting [5]) and in data set [3] was less than 1000 nM in each case.

Consider `Nc1ccccc1NC(=O)/C=C/c1cnn(CCOc2ccc(C(F)(F)F)cc2)c1` [B4], for which the IC50 in data set [1] (setting [5]) was less than 1000 nM; in data set [2] (setting [5]) it was 1000 to 5000 nM; in data set [3], less than 1000 nM.

Regarding `Nc1ccccc1NC(=O)/C=C/c1cnn(CCOc2cc(F)cc(Cl)c2)c1` [B5, (E)-N-(2-aminophenyl)-3-(1-(2-(3-chloro-5-fluorophenoxy)ethyl)-1H-pyrazol-4-yl)acrylamide], the IC50 in data set [1] (setting [5]), in data set [2] (setting [5]) and in data set [3] was less than 1000 nM each time.

Regarding `Nc1ccccc1NC(=O)/C=C/c1cnn(CCOc2ccc(F)cc2)c1` [B6], the IC50 in data set [1] (setting [5]), in data set [2] (setting [5]) and in data set [3] was less than 1000 nM throughout.

For the compound `CCn1cc(/C=C/C(=O)Nc2ccccc2N)cn1` [C1], the values for the IC50 in data set [1] (setting [5]), in data set [2] (setting [5]) and in data set [3] were less than 1000 nM, 1000 to 5000 nM and 1000 to 5000 nM, respectively.

For the compound `Cn1cc(/C=C/C(=O)Nc2ccc(F)cc2N)cn1` [C2], the results for the IC50 in data set [1] and in data set [2] were 1000 to 5000 nM and more than 20000 nM, respectively.

With `Nc1ccccc1NC(=O)/C=C/c1cnn(Cc2ccc(F)cc2)c1` [D5], the results for the IC50 in data set [1] (setting [5]), in data set [2] (setting [5]) and in data set [3] were less than 1000 nM, 1000 to 5000 nM and less than 1000 nM, respectively.

As for `CN(CCCn1cc(/C=C/C(=O)Nc2ccccc2N)cn1)c1ccccc1` [D12], the “acid stability (percent remaining after 24 hours incubation)” value in data set [4] was “A (A corresponds to more than 60%)”.

Turning to `Nc1ccccc1NC(=O)/C=C/c1cnn(CCc2c[nH]c3ccccc23)c1` [D13], the IC50 in data set [1] (setting [5]), in data set [2] (setting [5]) and in data set [3] was less than 1000 nM each time.

With `Nc1ccccc1NC(=O)/C=C/c1cnn(CCCOc2ccccc2)c1` [D15], the half-inhibitory concentration (IC50) in data set [1] (setting [5]), in data set [2] (setting [5]) and in data set [3] was less than 1000 nM throughout.

For `Nc1cc(F)ccc1NC(=O)/C=C/c1cnn(CCOc2ccccc2)c1` [D16], the half-inhibitory concentration (IC50) is less than 1000 nM in data set [1] (setting [5]), 1000 to 5000 nM in data set [2] (setting [5]) and 1000 to 5000 nM in data set [3].

On to `CCOCc1cn2cc(/C=C/C(=O)Nc3ccccc3N)sc2n1` [E1, (E)-N-(2-aminophenyl)-3-(6-(ethoxymethyl)imidazo[2,1-b]thiazol-2-yl)acrylamide], for which the figures for the 50% inhibitory concentration (IC50) in data set [1] (setting [5]), in data set [2] (setting [5]) and in data set [3] were less than 1000 nM, 5000 to 10000 nM and 1000 to 5000 nM, respectively.

As to `Nc1ccccc1NC(=O)/C=C/c1csc(C/C=C/c2ccccc2)n1` [E2, (E)-N-(2-aminophenyl)-3-(2-cinnamylthiazol-4-yl)acrylamide], the values for the 50% inhibitory concentration (IC50) in data set [1] (setting [5]), in data set [2] (setting [5]) and in data set [3] were less than 1000 nM, 1000 to 5000 nM and less than 1000 nM, respectively. In data set [4], the “acid stability (percent remaining after 24 hours incubation)” value is listed as “A (A corresponds to more than 60%)”.

Regarding `Nc1ccccc1NC(=O)c1ccc(C=C2CCN(C(=O)OCc3ccccc3)CC2)cc1` [F1], the results for the half-inhibitory concentration (IC50) in data set [1] (setting [5]), in data set [2] (setting [5]) and in data set [3] were less than 1000 nM, 1000 to 5000 nM and less than 1000 nM, respectively. The “acid stability (percent remaining after 24 hours incubation)” value in data set [4] is “B (B is between 40 and 60%)”.

Turning to `Nc1ccccc1NC(=O)c1ccc(C=C2CN(Cc3ccc4cc[nH]c4c3)C2)c(Cl)c1` [F5, 4-((1-((1H-indol-6-yl)methyl)azetidin-3-ylidene)methyl)-N-(2-aminophenyl)-3-chlorobenzamide], the results for the concentration for half-maximal inhibition (IC50) in data set [1] (setting [5]), in data set [2] (setting [5]) and in data set [3] were less than 1000 nM, 1000 to 5000 nM and less than 1000 nM, respectively.

Compound `Nc1ccccc1NC(=O)c1ccc(C=C2CN(Cc3cccnc3)C2)c(Cl)c1` [F6] had a half-inhibitory concentration (IC50) in data set [2] (setting [5]) of 1000 to 5000 nM.
